This is an account of results in paper PMC7504215, “Copper(II) Complexes with Mixed Heterocycle Ligands as Promising Antibacterial and Antitumor Species” (Molecules, 2020).

Experiment [1] has as its system P. aeruginosa 9027. The experiment in a line: MIC assay, liquid medium microdilution (planktonic growth). The format is cell-based, Pseudomonas aeruginosa. The protocol:
(§1) The antibacterial assays were performed on Gram-negative (Escherichia coli ATCC 25922, E. coli 5, Pseudomonas aeruginosa ATCC 27853, P. aeruginosa ATCC 9027) and Gram-positive (Staphylococcus aureus ATCC 25923, S. aureus ATCC 6538, MRSA (Meticillin-resistant S. aureus) 388, ATCC, American Type Culture Collection) bacterial strains. Microbial suspensions (1.5 × 10^8 CFU/mL; colony forming units (CFU)) corresponding to 0.5 McFarland density obtained from 15 to 18-h bacterial cultures developed on solid media were used. The antimicrobial activity was tested on Mueller–Hinton agar medium.
(§2) The quantitative assay of the antimicrobial activity was performed by the liquid medium microdilution method, in 96-well multi-well plates, to establish the minimal inhibitory concentration (MIC). For this purpose, serial two-fold dilutions of the compounds ranging between 1.000 and 1.95 μg/mL were performed in a 200 μL volume of broth and each well was seeded with 50 μL microbial inoculums. Sterility control (wells containing only culture medium) and culture controls (wells containing culture medium seeded with the microbial inoculum) were used. The influence of the DMSO solvent was also quantified in a series of wells containing DMSO, diluted accordingly with the dilution scheme used for the complexes. The plates were incubated for 24 h at 37 °C, and MIC values were considered as the lowest concentration of the tested compound that inhibited the visible growth of the microbial overnight cultures.
A general note: In broth dilution the organism is exposed to a series of concentrations in liquid medium.

For experiment [2], the system named is P. aeruginosa 27853. The experiment is described as above. The format is cell-based, Pseudomonas aeruginosa. The protocol:
as §1, §2

Experiment [3] has as its system P. aeruginosa 9027. The experiment in a line: MBEC assay, micro-titer method (biofilm). Format: cell-based, Pseudomonas aeruginosa. The protocol: as §1
(§3) The assessment of the complexes’ influence on the microbial ability to colonize an inert substratum with the establishment of the minimal biofilm eradication concentration (MBEC) was performed by the micro-titer method, following previously described protocols. The absorbance at 490 nm was measured with an Apollo LB 911ELISA (Berthold Technologies GmbH & Co. KG, Waltham, MA, USA) reader. All experiments were performed in triplicates.

The subject of experiment [4] is P. aeruginosa 27853. The experiment in a line: MBEC assay, micro-titer method (biofilm). The format is cell-based, Pseudomonas aeruginosa. The protocol:
as §1, §3

In experiment [5] the test system is E. coli 5 ESBL. Briefly: MBEC assay, micro-titer method (biofilm). Format: cell-based, Escherichia coli. The procedure:
as §1, §3

In experiment [6] the test system is E. coli 25922. Briefly: MBEC assay, micro-titer method (biofilm). Format: cell-based, Escherichia coli. The protocol:
as §1, §3

For experiment [7], the system named is E. coli 5 ESBL. The experiment in a line: MIC assay, liquid medium microdilution (planktonic growth). The format is cell-based, Escherichia coli. The protocol: as §1, §2
The subject of experiment [8] is E. coli 25922. The description is as above. The format is cell-based, Escherichia coli. The protocol:
as §1, §2

Experiment [9] concerns S. aureus 6538. The experiment in a line: MBEC assay, micro-titer method (biofilm). The format is cell-based, Staphylococcus aureus. The procedure:
as §1, §3

The subject of experiment [10] is MRSA. Briefly: MBEC assay, micro-titer method (biofilm). Format: cell-based, Staphylococcus aureus. The procedure:
as §1, §3

In experiment [11] the test system is S. aureus 25923. Briefly: MBEC assay, micro-titer method (biofilm). Format: cell-based, Staphylococcus aureus. The procedure: as §1, §3
The subject of experiment [12] is S. aureus 6538. Briefly: MIC assay, liquid medium microdilution (planktonic growth). Format: cell-based, Staphylococcus aureus. The protocol:
as §1, §2

Experiment [13] has as its system MRSA. Described as above. The format is cell-based, Staphylococcus aureus. The procedure: as §1, §2
Experiment [14] relates to S. aureus 25923. Described as above. Format: cell-based, Staphylococcus aureus. The procedure:
as §1, §2

Experiment [15] concerns human colon adenocarcinoma (HT 29) cell. The arrangement: method as in doi:10.1007/s10973-016-5425-7. The note with it: cited from earlier work.
Where [16] appears, read: P. aeruginosa 9027 (multi-drug-resistant), 24 h at 37 °C.
The mark [17] stands for this setting: P. aeruginosa 27853, 24 h at 37 °C.

≈ marks a conversion by molar mass, not a printed value. Where two headings read alike, the source gives them in different places.

Turning to `c1ccc(-c2ccccn2)nc1` [bpy, 2,2′-bipyridine], the MIC against P. aeruginosa 9027 [1] (Pseudomonas aeruginosa, 9027, 24 h) turned out to be 4 mM (≈ 625 µg/mL); against P. aeruginosa 27853 [2] (Pseudomonas aeruginosa, 27853, 24 h) it was 8 mM (≈ 1250 µg/mL); with E. coli 5 ESBL [7] (Escherichia coli, 5ESBL, 24 h), 4 mM (≈ 625 µg/mL); against E. coli 25922 [8] (Escherichia coli, 25922, 24 h), 4 mM (≈ 625 µg/mL); with S. aureus 6538 [12] (Staphylococcus aureus, 6538, 24 h), 8 mM (≈ 1250 µg/mL); against MRSA [13] (Staphylococcus aureus, 24 h), 8 mM (≈ 1250 µg/mL). Further, inhibition of growth in the experiment on S. aureus 25923 [14] (Staphylococcus aureus, 25923, 24 h) (MIC) required 8 mM (≈ 1250 µg/mL). In addition, the MBEC value in the experiment on P. aeruginosa 9027 [3] is 4.00 mM; in the experiment with P. aeruginosa 27853 [4] it was 8.00 mM; in the experiment with E. coli 5 ESBL [5], 8.00 mM; in the experiment with E. coli 25922 [6], 8.00 mM; in the experiment on S. aureus 6538 [9], 8.00 mM; in the experiment with MRSA [10], 8.00 mM. The MBEC value with S. aureus 25923 [11] is recorded as 4.00 mM.

For the compound `c1cnc2c(c1)ccc1cccnc12` [phen, 1,10-phenanthroline], the MIC turned out to be 3.5 mM (≈ 631 µg/mL) in the experiment with P. aeruginosa 9027 [1] (Pseudomonas aeruginosa, P. aeruginosa 9027 (multi-drug-resistant), 24 h at 37 °C, read-out: MIC); 7 mM (≈ 1260 µg/mL) in the experiment with P. aeruginosa 27853 [2] (Pseudomonas aeruginosa, P. aeruginosa 27853, 24 h at 37 °C, read-out: MIC); 3.5 mM (≈ 631 µg/mL) in the experiment with E. coli 5 ESBL [7] (Escherichia coli, E. coli 5 ESBL, 24 h at 37 °C, read-out: MIC); 3.5 mM (≈ 631 µg/mL) in the experiment with E. coli 25922 [8] (Escherichia coli, E. coli 25922, 24 h at 37 °C, read-out: MIC); 7 mM (≈ 1260 µg/mL) in the experiment on S. aureus 6538 [12] (Staphylococcus aureus, S. aureus 6538, 24 h at 37 °C, read-out: MIC); 7 mM (≈ 1260 µg/mL) with MRSA [13] (Staphylococcus aureus, 24 h at 37 °C, read-out: MIC). For the same compound, the MIC with S. aureus 25923 [14] (Staphylococcus aureus, S. aureus 25923, 24 h at 37 °C, read-out: MIC) was determined as 7 mM (≈ 1260 µg/mL). Besides, the MBEC value with P. aeruginosa 9027 [3] is 3.50 mM; with P. aeruginosa 27853 [4], 7.00 mM; with E. coli 5 ESBL [5], 3.50 mM; in the experiment with E. coli 25922 [6], 7.00 mM; in the experiment with S. aureus 6538 [9], 7.00 mM; with MRSA [10] it was 7.00 mM. In addition, the MBEC value with S. aureus 25923 [11] stood at 7.00 mM.

As for {[Cu(bpy)2(μ2OClO3)]·ClO4}n [CuBP], the MIC stood at 1.09 mM against P. aeruginosa 9027 [1] (setting [16]); 1.09 mM against P. aeruginosa 27853 [2] (setting [17]); 0.54 mM in the experiment on E. coli 5 ESBL [7] (E. coli 5 ESBL, 24 h at 37 °C); 0.54 mM in the experiment with E. coli 25922 [8] (E. coli 25922, 24 h at 37 °C); 0.27 mM in the experiment with S. aureus 6538 [12] (S. aureus 6538, 24 h at 37 °C); 0.27 mM against MRSA [13] (24 h at 37 °C). The MIC in the experiment on S. aureus 25923 [14] (S. aureus 25923, 24 h at 37 °C) was 0.27 mM. Further, the MBEC value is on record as 1.09 mM in the experiment with P. aeruginosa 9027 [3]; 1.09 mM in the experiment with P. aeruginosa 27853 [4]; 0.54 mM in the experiment on E. coli 5 ESBL [5]; 0.54 mM in the experiment with E. coli 25922 [6]; 0.14 mM with S. aureus 6538 [9]; 0.27 mM with MRSA [10]. In the experiment with S. aureus 25923 [11], this compound registered an MBEC value of 0.14 mM.

For `O.[Cu+2].[O-][Cl+3]([O-])([O-])[O-].[O-][Cl+3]([O-])([O-])[O-].c1cnc2c(c1)ccc1cccnc12.c1cnc2c(c1)ccc1cccnc12` [CuPP, [Cu(phen)2(OH2)](ClO4)2], the MIC against P. aeruginosa 9027 [1] (setting [16]) came out at 0.50 mM; with P. aeruginosa 27853 [2] (setting [17]), 0.50 mM; in the experiment on E. coli 5 ESBL [7] (E. coli 5 ESBL, 24 h at 37 °C), 0.03 mM; against E. coli 25922 [8] (E. coli 25922, 24 h at 37 °C), 0.03 mM; against S. aureus 6538 [12] (S. aureus 6538, 24 h at 37 °C), 0.03 mM; in the experiment with MRSA [13] (24 h at 37 °C) it was 0.12 mM. In the experiment with S. aureus 25923 [14] (S. aureus 25923, 24 h at 37 °C), the MIC is on record as 0.03 mM. Moreover, the MBEC value was determined as 0.50 mM in the experiment with P. aeruginosa 9027 [3]; 0.50 mM with P. aeruginosa 27853 [4]; 0.30 mM in the experiment on E. coli 5 ESBL [5]; 0.10 mM in the experiment on E. coli 25922 [6]; 0.03 mM with S. aureus 6538 [9]; 0.10 mM in the experiment on MRSA [10]. In the experiment with S. aureus 25923 [11], the MBEC value is reported as 0.03 mM.

As for `CC(=O)[O-].CC(=O)[O-].Cc1cc(-c2ccccc2)nc2ncnn12.[Cu+2]` [[Cu(pmtp)(CH3COO)2]·0.5H2O], the Antiproliferative effect result in [15] is reported as “dose-dependent antiproliferative effect”.

By MIC is commonly meant the lowest concentration that inhibits growth of the organism.
